According to patent US8017637B2, “Inhibitors of cdc phosphatases” (Ipsen Pharma S.A.S., priority 2004, dated 2011):

What was measured:
[1] = tested on: DU-145 lines (human prostate cancer cells); assay: Anti-proliferative activity, WST1 colorimetric test, DU145 cells; type: cell-based; conditions: 96 hours treatment, up to 10 μM, read-out: IC50 on the cell proliferation of the DU-145 lines
Procedure: (§1) ii) Characterization of Anti-Proliferative Activity:
(§2) By way of example, the effect of a treatment by the compounds of the examples described previously on two lines of human Mia-Paca2 and DU145 cells will be studied. The cell lines DU145 (human prostate cancer cells) and Mia-PaCa2 (human pancreatic cancer cells) were acquired from the American Tissue Culture Collection (Rockville, Md., USA). The cells placed in 80 μl of Dulbecco's Modified Eagle medium (Gibco-Brl, Cergy-Pontoise, France) completed with 10% foetal calf serum inactivated by heating (Gibco-Brl, Cergy-Pontoise, France), 50,000 units/l of penicillin and 50 mg/l streptomycin (Gibco-Brl, Cergy-Pontoise, France), and 2 mM of glutamine (Gibco-Brl, Cergy-Pontoise, France) were seeded on a 96-well plate on day 0. The cells were treated on day 1 for 96 hours at increasing concentrations of each of the compounds to be tested up to 10 μM. At the end of the of this period, quantification of the cell proliferation is evaluated by a colorimetric test based on the cleavage of the tetrazolium salt WST1 by the mitochondrial dehydrogenases in the viable cells leading to the formation of formazan (Boehringer Mannheim, Meylan, France). These tests are carried out in duplicate with 8 determinations per concentration tested. For each compound to be tested, the values included in the linear part of the sigmoid were retained for linear regression analysis and used in order to estimate the inhibitory concentration IC50. The products are solubilized in dimethylsulphoxide (DMSO) at to 10^−2M and finally used in culture with 0.1% DMSO.

[2] = target: T1, purified recombinant enzyme Cdc25-C (MBP-Cdc25C) (Homo sapiens, UniProt P30307); assay: Measurement of the phosphatase activity of the purified recombinant enzyme Cdc25C (OMFP dephosphorylation, fluorescence); type: biochemical; conditions: OMFP 500 μM, 4 hours at 30° C.
T1 construct: made in house
T1 sequence (P30307 1-473): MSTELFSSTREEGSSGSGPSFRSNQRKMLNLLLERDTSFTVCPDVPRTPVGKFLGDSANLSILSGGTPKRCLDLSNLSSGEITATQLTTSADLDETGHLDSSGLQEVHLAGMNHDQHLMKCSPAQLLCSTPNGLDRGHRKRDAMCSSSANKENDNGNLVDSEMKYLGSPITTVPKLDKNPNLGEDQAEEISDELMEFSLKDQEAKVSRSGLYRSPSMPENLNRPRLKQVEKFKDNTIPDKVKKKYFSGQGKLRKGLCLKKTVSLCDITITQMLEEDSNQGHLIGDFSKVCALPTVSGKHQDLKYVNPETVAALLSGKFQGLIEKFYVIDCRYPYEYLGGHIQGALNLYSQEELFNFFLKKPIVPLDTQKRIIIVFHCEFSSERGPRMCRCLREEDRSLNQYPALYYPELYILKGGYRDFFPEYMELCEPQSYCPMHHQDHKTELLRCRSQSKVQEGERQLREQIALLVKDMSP
Procedure: i) Measurement of the Phosphatase Activity of the Purified Recombinant Enzyme Cdc25C
The phosphatase activity of the protein MBP-Cdc25C is evaluated by the dephosphorylation of 3-O-methylfluorescein-phosphate (OMFP) to 3-O-methylfluorescein (OMF) with a determination of the fluorescence at 475 nm of the reaction product. This test makes it possible to identify inhibitors of the recombinant enzyme cdc25. The preparation of the fusion protein MBP-Cdc25C is described in the Patent Application PCT WO 01/44467.
The reaction is carried out in 384-well plate format at a final volume of 50 μl. The protein MBP-Cdc25C (prepared as described above) is preserved in the following elution buffer: 20 mM Tris-HCl pH 7.4; 250 mM NaCl; 1 mM EDTA; 1 mM of dithiothreitol (DTT); 10 mM maltose. It is diluted to a concentration of 60 μM in the following reaction buffer: 50 mM Tris-HCl pH 8.2; 50 mM NaCl; 1 mM DTT; 20% glycerol. Measurement of the background noise is carried out with the buffer without the addition of the enzyme. The products are tested at decreasing concentrations starting from 40 μM. The reaction is initiated by the addition of an OMFP solution at 500 μM final (prepared extemporaneously from a 12.5 mM stock solution in 100% DMSO (Sigma #M2629)). After 4 hours at 30° C. in a single-use 384-well plate, the fluorescence measured at OD 475 nm is read using a Victor^2 plate reader (EGG-Wallac). The determination of the concentration inhibiting the enzyme reaction by 50% is calculated from three independent experiments. Only the values contained in the linear part of the sigmoid are retained for linear regression analysis.

[3] = tested on: Mia-Paca2 lines (human pancreatic cancer cells); assay: Anti-proliferative activity, WST1 colorimetric test, Mia-Paca2 cells; type: cell-based; conditions: MIA PaCa-2, 96 hours treatment, up to 10 μM, read-out: IC50 on the cell proliferation of the Mia-Paca2 lines
Procedure: as §1, §2

| Structure (SMILES) | IC50 [1] [µM] | IC50 [2] [µM] | melting point [°C] | IC50 [3] [µM] |
| --- | --- | --- | --- | --- |
| Cc1nc2c(s1)C(=O)C=C(NCC1CCC(CNC3=CC(=O)c4sc(C)nc4C3=O)CC1)C2=O (stereo not shown) [Example 20, 5.5′-[cyclohexane-1,4-diylbis(methyleneimino)]bis(2-methyl-1,3-benzothiazole-4,7-dione)] | ≤ 10 | ≤ 1 | > 240 | ≤ 10 |
| CN(CCCNC1=CC(=O)c2nc(Cc3c(F)cccc3Cl)oc2C1=O)CCCNC1=CC(=O)c2nc(Cc3c(F)cccc3Cl)oc2C1=O [Example 10, 6.6′-[(methylimino)bis(propane-3,1-diylimino)]bis[2-(2-chloro-6-fluorobenzyl)-1,3-benzoxazole-4,7-dione]] | ≤ 10 | ≤ 1 | 165 to 167 | ≤ 10 |
| Cc1nc2c(s1)C(=O)C=C(NCCN(C)CCNC1=CC(=O)c3sc(C)nc3C1=O)C2=O [Example 2, 5.5′-[(methylimino)bis(ethane-2,1-diylimino)]bis(2-methyl-1,3-benzothiazole-4,7-dione)] | ≤ 10 | ≤ 1 | 188 to 190 | ≤ 10 |
| CN(CCCNC1=CC(=O)c2nc(-c3cccc(Br)c3)oc2C1=O)CCCNC1=CC(=O)c2nc(-c3cccc(Br)c3)oc2C1=O [Example 11, 6.6′-[(methylimino)bis(propane-3,1-diylimino)]-bis[2-(3-bromophenyl)-1,3-benzoxazole-4,7-dione]] | ≤ 10 | ≤ 5 | 199 to 200 | ≤ 10 |
| CN(CCCNC1=CC(=O)c2nc(-c3cccc(Cl)c3)oc2C1=O)CCCNC1=CC(=O)c2nc(-c3cccc(Cl)c3)oc2C1=O [Example 14, 6.6′-[(methylimino)bis(propane-3,1-diylimino)]-bis[2-(3-chlorophenyl)-1,3-benzoxazole-4,7-dione]] | ≤ 10 | ≤ 1 | 196 to 197 | ≤ 10 |
| CN(CCCNC1=CC(=O)c2sc(C(=O)NC3CCCCC3)nc2C1=O)CCCNC1=CC(=O)c2sc(C(=O)NC3CCCCC3)nc2C1=O [Example 35, 5.5′-[(methylimino)bis(propane-3,1-diylimino)]bis(N-cyclohexyl-4,7-dioxo-4,7-dihydro-1,3-benzothiazole-2-carboxamide)] | ≤ 10 | ≤ 1 | 145 to 146 | ≤ 10 |
| Cc1nc2c(s1)C(=O)C=C(NCCCN(C)CCCNC1=CC(=O)c3sc(C)nc3C1=O)C2=O [Example 1, 5.5′-[(methylimino)bis(propane-3,1-diylimino)]bis(2-methyl-1,3-benzothiazole-4,7-dione)] | ≤ 10 | ≤ 1 | 94 to 96 | ≤ 10 |
| CN(CCCNC1=CC(=O)c2sc(C(=O)Nc3ccc(F)cc3)nc2C1=O)CCCNC1=CC(=O)c2sc(C(=O)Nc3ccc(F)cc3)nc2C1=O [Example 32, 5.5′-[(methylimino)bis(propane-3,1-diylimino)]bis[N-(4-fluorophenyl)-4,7-dioxo-4,7-dihydro-1,3-benzothiazole-2-carboxamide]] | ≤ 10 | ≤ 1 | 262 to 263 | ≤ 10 |
| Cc1nc2c(s1)C(=O)C(NCCCN(C)CCCNC1=CC(=O)c3sc(C(=O)N4CCN(C(=O)C5CCCO5)CC4)nc3C1=O)=CC2=O (stereo not shown) [Example 42, 5-{[3-(methyl{3-[(2-methyl-4,7-dioxo-4,7-dihydro-1,3-benzothiazol-6-yl)amino]propyl}amino)propyl]amino}-2-{[4-(tetrahydrofuran-2-ylcarbonyl)piperazin-1-yl]carbonyl}-1,3-benzothiazole-4,7-dione] | ≤ 10 | ≤ 1 | 121 to 122 | ≤ 10 |
| COc1ccc(NC(=O)c2nc3c(s2)C(=O)C=C(NCCCN(C)CCCNC2=CC(=O)c4sc(C)nc4C2=O)C3=O)cc1 [Example 41, N-(4-methoxyphenyl)-5-{[3-(methyl{3-[(2-methyl-4,7-dioxo-4,7-dihydro-1,3-benzothiazol-5-yl)amino]propyl}amino)propyl]amino}-4,7-dioxo-4,7-dihydro-1,3-benzothiazole-2-carboxamide] | ≤ 10 | ≤ 1 | 141 to 142 | ≤ 10 |
| Cc1nc2c(s1)C(=O)C=C(NCCCN(CCCNC1=CC(=O)c3sc(C)nc3C1=O)CCCNC1=CC(=O)c3sc(C)nc3C1=O)C2=O [Example 18] | ≤ 10 | ≤ 1 | 131 to 132 | ≤ 10 |
| CN(CCCNC1=CC(=O)c2sc(C(=O)N3CCN(C(=O)c4ccco4)CC3)nc2C1=O)CCCNC1=CC(=O)c2sc(C(=O)N3CCN(C(=O)c4ccco4)CC3)nc2C1=O [Example 37, 5.5′-[(methylimino)bis(propane-3,1-diylimino)]bis(2-{[4-(2-furoyl)piperazin-1-yl]carbonyl}-1,3-benzothiazole-4,7-dione)] | ≤ 10 | ≤ 1 | 173 to 174 | ≤ 10 |
| COc1ccc(C(=O)N2CCN(C(=O)c3nc4c(s3)C(=O)C=C(NCCCN(C)CCCNC3=CC(=O)c5sc(C(=O)N6CCN(C(=O)c7ccc(OC)cc7)CC6)nc5C3=O)C4=O)CC2)cc1 [Example 36, 5.5′-[(methylimino)bis(propane-3,1-diylimino)]bis(2-([4-(4-methoxybenzoyl)piperazin-1-yl]carbonyl)-1,3-benzothiazole-4,7-dione)] | ≤ 10 | ≤ 1 | 202 to 203 | ≤ 10 |
| CN(CCCNC1=CC(=O)c2nc(C(=O)N3CCCC3)sc2C1=O)CCCNC1=CC(=O)c2nc(C(=O)N3CCCC3)sc2C1=O [Example 31, 6.6′-[(methylimino)bis(propane-3,1-diylimino)]bis[2-(pyrrolidin-1-ylcarbonyl)-1,3-benzothiazole-4,7-dione]] | ≤ 10 | ≤ 1 | 237 to 238 | ≤ 10 |
| Cc1nc2c(s1)C(=O)C(NCCCN(C)CCCNC1=CC(=O)c3nc(C)sc3C1=O)=CC2=O [Example 5, 6.6′-[(methylimino)bis(propane-3,1-diylimino)]bis(2-methyl-1,3-benzothiazole-4,7-dione)] | ≤ 10 | ≤ 1 | 91 to 93 | ≤ 10 |
| CN(CCCNC1=CC(=O)c2sc(C(=O)N3CCOCC3)nc2C1=O)CCCNC1=CC(=O)c2sc(C(=O)N3CCOCC3)nc2C1=O [Example 26, 5.5′-[(methylimino)bis(propane-3,1-diylimino)]bis[2-(morpholin-4-ylcarbonyl)-1,3-benzothiazole-4,7-dione]] | ≤ 10 | ≤ 1 | 207 to 208 | ≤ 10 |
